Results published in PubChem BioAssay (NCI).
Where “and” joins values, the source holds several entries; their conditions need not be identical. Identical values can stand only once.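 Five compound concentrations were applied to cells in 96-well plates for 48 hours; endpoints were derived by simple linear interpolation of the resulting dose-response curve. The concentration for 50% growth inhibition is given as GI50. At the TGI there is no net growth.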 Where a SMILES comes first, the peptide text is derived from it. [ ]: non-standard residue; d: D form. The star is where a group is joined. NMeF = CN[C@@H](Cc1ccccc1)C(=O)O; NMeV = CN[C@H](C(=O)O)C(C)C; Boc = CC(C)(C)OC(=O)*; OBn = c1ccc(CO*)cc1

Key:
Test in all cases: inhibition of tumour cell growth, NCI panel, 48 h
[1] = tested on: NCI-H460 lung
[2] = tested on: KM12 colon
[3] = tested on: EKVX NSCLC
[4] = tested on: MALME-3M melanoma
[5] = tested on: A498 renal
[6] = tested on: UACC-62 melanoma
[7] = tested on: UO-31 renal
[8] = tested on: SK-OV-3 ovarian
[9] = tested on: IGROV1 ovarian
[10] = tested on: SW-620 colon

| Structure (SMILES) | TGI [1] [µM] | TGI [2] [µM] | TGI [3] [µM] | TGI [4] [µM] | TGI [5] [µM] | TGI [6] [µM] | TGI [7] [µM] | TGI [8] [µM] | TGI [9] [µM] | TGI [10] | GI50 [1] [µM] | GI50 [2] [µM] | GI50 [3] [µM] | GI50 [4] [µM] | GI50 [5] [µM] | GI50 [6] [µM] | GI50 [7] [µM] | GI50 [8] [µM] | GI50 [9] [µM] | GI50 [10] [µM] |
| --- | --- | --- | --- | --- | --- | --- | --- | --- | --- | --- | --- | --- | --- | --- | --- | --- | --- | --- | --- | --- |
| O=C1c2cc([N+](=O)[O-])cc3cc([N+](=O)[O-])cc(c23)C(=O)N1CCCNCCNCCCN1C(=O)c2cc([N+](=O)[O-])cc3cc([N+](=O)[O-])cc(c23)C1=O | 3.56 | 2.51 | 10 | 1.33 | 13.4 | 1.48 | 3.35 | 8.48 | 1.74 | 4.52 µM | – | – | – | – | – | – | – | – | – | – |
| O=C1/C(=C/c2ccccc2F)CN(C(=O)C(Cl)Cl)C/C1=C\c1ccccc1F | 2.24 | 0.685 | 2.06 | 1.92 | 3.14 | 1.08 | 1.67 | 3.28 | 1.44 | 0.343 µM | 0.55 | 0.245 | 0.451 | 0.599 | 1.54 | 0.378 | 0.44 | 1.65 | 0.351 | 0.093 |
| CC(C)[C@@H](C(=O)N1CCC[C@H]1C(=O)OCc1ccccc1)N(C)C(=O)[C@H](C(C)C)N(C)C(=O)[C@H](Cc1ccccc1)N(C)C(=O)[C@H](NC(=O)OC(C)(C)C)C(C)C (Boc-[dV][NMeF][NMeV][NMeV]P-OBn) | > 100 | > 100 | > 100 | > 100 | > 100 | > 100 | > 100 | > 100 | > 100 | > 50 µM and 26.7 µM | 17.5 | > 100 | – | – | – | – | – | – | – | 12.5 |
| COC(=O)CS(=O)c1ccccc1 (stereo unspecified) | > 100 | > 100 | > 100 | > 100 | > 100 | > 100 | 22.1 | > 100 | 54 | > 100 µM | – | – | – | – | – | – | – | – | – | – |
| CCOC(=O)c1c(Cl)c2c(n1Cc1cccc(OC)c1)-c1oncc1CC2 | 13.7 | 77.9 | > 100 | 96.2 | 5.69 | 29.3 | 78.6 | > 100 | 59 | > 100 µM | 0.659 | 0.732 | 3.05 | 0.646 | 0.382 | 0.608 | 3.37 | 3.36 | 1.23 | 0.773 |
| Cc1cc(C)c2nc3nc(C)cc(C)c3c(N)c2c1 | 11 | 24 | 43 | 16.6 | 17.8 | 18.9 | 16 | 23.5 | 28.2 | 21.4 µM | 3.15 | 5.52 | 4.76 | 4.19 | 4.67 | 4.83 | 2.9 | 4.1 | 3.64 | 3.4 |
| Cc1ccc(-c2nc(N)c(C#N)c3c2CCOc2c-3ccc3ccccc23)cc1 | > 46.4 | 48.6 | – | 7.89 | 0.609 | > 100 | > 100 | – | > 100 | > 93.4 µM | 0.332 | 0.203 | 3.12 | 0.0779 | 0.0794 | 0.935 | 4.14 | 3.42 | 0.359 | 1.76 |
